According to patent US20070134202A1, “Cancer gene therapeutic drug” (priority 2003, published 2007):

Assays:
Assay type in all cases: cell-based
cancer cells [1] = experiment: PFU assay of adenovirus production
Source text: (§1) That is, ALA and Fe can enhance antitumor effect, because they can increase the infectivity of adenovirus to cancer cells and the amount of virus production within the cells.

cancer cells [2] = experiment: β-gal assay of adenovirus infectivity
Source text: as §1

Ovarian cancer cells HEY = experiment: Influence of Fe and ALA on the proliferation inhibitory effect of adenovirus AdE3-1A1.3B (FIG. 15-17)
Experimental: Ovarian cancer cells HEY were cultured in 12-well plate at a rate of 10,000 cells/well and FeSO4 was added at a concentration of 50 μg/ml, 5 μg/ml, 0.5 μg/ml or 0 μg/ml on the following day and the cytolysis type adenovirus AdE3-1A1.3B was added to all wells. The proliferation inhibitory effect of the adenovirus was evaluated by IC50 after five days.
(§2) Next, the ovarian cancer cell line HEY was cultured in a 12-well plate at a rate of 10,000 cells/well and 5-aminolevulinic acid (ALA) was added at a concentration of 50 μg/ml, 5 μg/ml, 0.5 μg/ml or 0 μg/ml on the following day and the cytolysis type adenovirus AdE3-1A1.3B was added to all wells. The proliferation inhibitory effect of the adenovirus was evaluated by IC50 after five days.
as §2, with “Furthermore,” for “Next,”, “FeSO4” for “5-aminolevulinic acid (ALA)”, “day. In addition,” for “day and”, “AdE3-1A1.3B and 50 μg/ml of 5-aminolevulinic acid (ALA) were added to each well. Only the adenovirus” for “AdE3-1A1.3B”, “a control.” for “all wells.”

| Compound | amount of adenovirus production (cancer cells [1]) | infectivity of adenovirus (cancer cells [2]) | proliferation inhibitory effect to that of only adenovirus administration (Ovarian cancer cells HEY; 50 μg/ml of ALA and AdE3-1A1.3B, IC50 (vp/cell) after five days) | proliferation inhibitory effect to that of only adenovirus administration (Ovarian cancer cells HEY; 0.5 μg/ml of FeSO4, 50 μg/ml of ALA and AdE3-1A1.3B, after five days) | proliferation inhibitory effect to that of only adenovirus administration (Ovarian cancer cells HEY; 5 μg/ml of FeSO4, 50 μg/ml of ALA and AdE3-1A1.3B, after five days) | proliferation inhibitory effect to that of only adenovirus administration (Ovarian cancer cells HEY; 5 μg/ml of FeSO4 and AdE3-1A1.3B, IC50 (vp/cell) after five days) | proliferation inhibitory effect to that of only adenovirus administration (Ovarian cancer cells HEY; 50 μg/ml of FeSO4, 50 μg/ml of ALA and AdE3-1A1.3B, after five days) | proliferation inhibitory effect to that of only adenovirus administration (Ovarian cancer cells HEY; 50 μg/ml of FeSO4 and AdE3-1A1.3B, IC50 (vp/cell) after five days) |
| --- | --- | --- | --- | --- | --- | --- | --- | --- |
| NCC(=O)CCC(=O)O [ALA, 5-aminolevulinic acid, reference compound] | increased amount of adenovirus production | increased infectivity of adenovirus | about 100 fold |  |  |  |  |  |
| [Fe] [Fe] | increased amount of adenovirus production | increased infectivity of adenovirus |  |  |  |  |  |  |
| ferrous sulfate [FeSO4] |  |  |  | about 200 fold | about 700 fold | about 8 fold | about 1,000 fold | about 20 fold |
